The values that follow come from patent US12336981B2, “Compounds and compositions for the inhibition of NAMPT” (Valo Health, Inc., priority 2010, dated 2025).

Where two headings read alike, the source gives them in different places.

Broadly, the IC50 is the midpoint of a concentration-inhibition curve.

One experiment concerns A2780 cells. As to the kind of experiment: In-vitro cell proliferation assay (SRB), A2780 cells. The settings on record: Homo sapiens, A2780, 72 h, A2780 cells, 72 hours, read-out: A2780 IC50. The format is cell-based. Summed up: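 SRB read-out: 6% TCA fix 1 h at 4° C., stain, Tris solubilize, A570. Media-only background subtracted; % inhibition from two compound concentrations.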

The target in the next experiment is T1, NAMPT (Homo sapiens, UniProt P43490).
T1 construct: His tag; host or cells: E. coli
The experiment is described as follows: Biochemical inhibition assay: NAMPT enzymatic reaction, NMN quantified by mass spectrometry. The following applies: NAMPT enzymatic reaction; read-out: Biochem IC50. Summed up:
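Inhibition of E. coli-expressed His-tagged human NAMPT, measured as NMN formation by mass spectrometry after a 30 min room-temperature reaction containing 1 μM NAM, 100 μM PRPP and 2.5 mM ATP.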

T1 sequence (P43490 whole entry): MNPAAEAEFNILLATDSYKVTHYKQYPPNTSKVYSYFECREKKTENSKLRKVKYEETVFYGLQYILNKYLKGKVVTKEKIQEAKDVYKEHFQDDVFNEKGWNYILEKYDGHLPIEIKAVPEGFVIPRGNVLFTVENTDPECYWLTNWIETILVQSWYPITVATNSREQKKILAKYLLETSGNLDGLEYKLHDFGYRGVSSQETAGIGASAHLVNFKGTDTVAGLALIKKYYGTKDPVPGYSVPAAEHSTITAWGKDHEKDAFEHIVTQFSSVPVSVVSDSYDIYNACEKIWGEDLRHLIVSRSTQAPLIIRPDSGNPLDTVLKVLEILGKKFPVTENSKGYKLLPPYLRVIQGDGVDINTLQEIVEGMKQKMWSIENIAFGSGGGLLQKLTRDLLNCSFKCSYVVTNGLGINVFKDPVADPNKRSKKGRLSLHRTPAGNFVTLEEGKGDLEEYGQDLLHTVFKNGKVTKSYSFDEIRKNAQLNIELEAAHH

On to `CCCCc1ccc(S(=O)(=O)c2ccc(CNC(=O)c3cc4ccncc4o3)cc2)cc1` [N-({4-[(4-butylbenzene)sulfonyl]phenyl}methyl)furo[2,3-c]pyridine-2-carboxamide], for which the half-inhibitory concentration (IC50) with A2780 cells (SRB) was determined as 26.5 nM; at NAMPT it was 18.1 nM.

`COc1cc(Cl)c(C)cc1NS(=O)(=O)c1ccc(CNC(=O)c2cc3cnccc3[nH]2)cc1` [N-({4-[(4-chloro-2-methoxy-5-methylphenyl)sulfamoyl]phenyl}methyl)-1H-pyrrolo[3,2-c]pyridine-2-carboxamide]: the IC50 was found to be 18300 nM in the experiment on A2780 cells (SRB assay) and 7840 nM at NAMPT.

In the case of `COc1cc(Cl)ccc1S(=O)(=O)c1ccc(CNC(=O)c2cc3cnccc3[nH]2)cc1` [N-({4-[(4-chloro-2-methoxybenzene)sulfonyl]phenyl}methyl)-1H-pyrrolo[3,2-c]pyridine-2-carboxamide], the IC50 was 3 nM in the experiment on A2780 cells (SRB assay) and 22 nM at NAMPT.

For the compound `COc1cc(Cl)ccc1S(=O)(=O)c1ccc(CNC(=O)c2ccc3nccn3c2)cc1` [N-({4-[(4-chloro-2-methoxybenzene)sulfonyl]phenyl}methyl)imidazo[1,2-a]pyridine-6-carboxamide], the IC50 in the experiment on A2780 cells (SRB) turned out to be 12.6 nM; at NAMPT it was 18.7 nM.

On to `COc1cc(Cl)ccc1S(=O)(=O)c1ccc(CNC(=O)c2cc3ccncc3s2)cc1` [N-({4-[(4-chloro-2-methoxybenzene)sulfonyl]phenyl}methyl)thieno[2,3-c]pyridine-2-carboxamide], for which the concentration for half-maximal inhibition (IC50) with A2780 cells (SRB assay) was found to be 3.8 nM; at NAMPT it was 10 nM.

On to `Cc1cc(Cl)ccc1S(=O)(=O)c1ccc(CNC(=O)c2cnc3[nH]ncc3c2)cc1` [N-({4-[(4-chloro-2-methylbenzene)sulfonyl]phenyl}methyl)-1H-pyrazolo[3,4-b]pyridine-5-carboxamide], for which the IC50 in the experiment on A2780 cells (SRB) was determined as 58.7 nM; on NAMPT it was 77.5 nM.

Turning to `Cc1cc(Cl)ccc1S(=O)(=O)c1ccc(CNC(=O)c2cc3cnccc3[nH]2)cc1` [N-({4-[(4-chloro-2-methylbenzene)sulfonyl]phenyl}methyl)-1H-pyrrolo[3,2-c]pyridine-2-carboxamide], the half-maximal inhibitory concentration (IC50) in the experiment on A2780 cells (SRB assay) was found to be 25 nM; at NAMPT, 27 nM.

On to `Cc1cc(Cl)ccc1S(=O)(=O)c1ccc(CNC(=O)c2cc3ccncc3o2)cc1` [N-({4-[(4-chloro-2-methylbenzene)sulfonyl]phenyl}methyl)furo[2,3-c]pyridine-2-carboxamide], for which the figures for the IC50 with A2780 cells (SRB) and at NAMPT were 64.7 nM and 24.9 nM, respectively.

`O=C(NCc1ccc(S(=O)(=O)c2ccc(Cl)c(F)c2)cc1)c1cc2cnccc2[nH]1` [N-({4-[(4-chloro-3-fluorobenzene)sulfonyl]phenyl}methyl)-1H-pyrrolo[3,2-c]pyridine-2-carboxamide]: the concentration for half-maximal inhibition (IC50) in the experiment with A2780 cells (SRB assay) is 13 nM; at NAMPT, 8 nM.

`O=C(NCc1ccc(S(=O)(=O)c2ccc(Cl)c(F)c2)cc1)c1ccc2nccn2c1` [N-({4-[(4-chloro-3-fluorobenzene)sulfonyl]phenyl}methyl)imidazo[1,2-a]pyridine-6-carboxamide]: the IC50 is 7.24 nM in the experiment with A2780 cells (SRB) and 7.22 nM on NAMPT.

Consider `O=C(NCc1ccc(S(=O)(=O)c2ccc(Cl)c(F)c2)cc1)c1cc2ccncc2s1` [N-({4-[(4-chloro-3-fluorobenzene)sulfonyl]phenyl}methyl)thieno[2,3-c]pyridine-2-carboxamide], for which the half-inhibitory concentration (IC50) in the experiment on A2780 cells (SRB assay) worked out at 7.1 nM; at NAMPT it was 3 nM.

In the case of `COc1cc(S(=O)(=O)c2ccc(CNC(=O)c3cc4ccncc4o3)cc2)ccc1Cl` [N-({4-[(4-chloro-3-methoxybenzene)sulfonyl]phenyl}methyl)furo[2,3-c]pyridine-2-carboxamide], the IC50 was 6 nM in the experiment on A2780 cells (SRB) and 5.9 nM on NAMPT.

With `O=C(NCc1ccc(S(=O)(=O)c2ccc(Cl)cc2)cc1)c1cnc2[nH]ncc2c1` [N-({4-[(4-chlorobenzene)sulfonyl]phenyl}methyl)-1H-pyrazolo[3,4-b]pyridine-5-carboxamide], the IC50 with A2780 cells (SRB) was 22 nM; on NAMPT it was 28.8 nM.

Consider `O=C(NCc1ccc(S(=O)(=O)c2ccc(Cl)cc2)cc1)c1cc2cnccc2[nH]1` [N-({4-[(4-chlorobenzene)sulfonyl]phenyl}methyl)-1H-pyrrolo[3,2-c]pyridine-2-carboxamide], for which the IC50 in the experiment on A2780 cells (SRB assay) is 25 nM; on NAMPT it was 9 nM.

Regarding `O=C(NCc1ccc(S(=O)(=O)c2ccc(Cl)cc2)cc1)c1cc2ccncc2o1` [N-({4-[(4-chlorobenzene)sulfonyl]phenyl}methyl)furo[2,3-c]pyridine-2-carboxamide], the IC50 in the experiment with A2780 cells (SRB) turned out to be 14.2 nM; on NAMPT it was 4.9 nM.

With `N#Cc1ccc(S(=O)(=O)c2ccc(CNC(=O)c3cnc4[nH]ncc4c3)cc2)cc1` [N-({4-[(4-cyanobenzene)sulfonyl]phenyl}methyl)-1H-pyrazolo[3,4-b]pyridine-5-carboxamide], the IC50 in the experiment on A2780 cells (SRB) worked out at 20.8 nM; at NAMPT it was 28.4 nM.

Consider `N#Cc1ccc(S(=O)(=O)c2ccc(CNC(=O)c3cc4cnccc4[nH]3)cc2)cc1` [N-({4-[(4-cyanobenzene)sulfonyl]phenyl}methyl)-1H-pyrrolo[3,2-c]pyridine-2-carboxamide], for which the IC50 was determined as 25.1 nM with A2780 cells (SRB) and 11.1 nM on NAMPT.

On to `N#Cc1ccc(S(=O)(=O)c2ccc(CNC(=O)c3cc4ccncc4o3)cc2)cc1` [N-({4-[(4-cyanobenzene)sulfonyl]phenyl}methyl)furo[2,3-c]pyridine-2-carboxamide], for which the results for the half-inhibitory concentration (IC50) in the experiment on A2780 cells (SRB) and on NAMPT were 30.9 nM and 5.3 nM, respectively.

Turning to `CCOc1ccc(NS(=O)(=O)c2ccc(CNC(=O)c3cc4cnccc4[nH]3)cc2)c(F)c1` [N-({4-[(4-ethoxy-2-fluorophenyl)sulfamoyl]phenyl}methyl)-1H-pyrrolo[3,2-c]pyridine-2-carboxamide], the IC50 was 1600 nM in the experiment on A2780 cells (SRB assay) and 154 nM on NAMPT.

On to `CCOc1ccc(S(=O)(=O)c2ccc(CNC(=O)c3cnc4nccn4c3)cc2)c(C)c1` [N-({4-[(4-ethoxy-2-methylbenzene)sulfonyl]phenyl}methyl)imidazo[1,2-a]pyrimidine-6-carboxamide], for which the values for the IC50 with A2780 cells (SRB) and on NAMPT were 60.7 nM and 11.7 nM, respectively.

On to `CCOc1ccc(S(=O)(=O)c2ccc(CNC(=O)c3cc4ccncc4o3)cc2)cc1` [N-({4-[(4-ethoxybenzene)sulfonyl]phenyl}methyl)furo[2,3-c]pyridine-2-carboxamide], for which the IC50 came out at 7.1 nM in the experiment on A2780 cells (SRB) and 2.5 nM on NAMPT.

For the compound `CCc1ccc(S(=O)(=O)c2ccc(CNC(=O)c3cc4cnccc4[nH]3)cc2)cc1` [N-({4-[(4-ethylbenzene)sulfonyl]phenyl}methyl)-1H-pyrrolo[3,2-c]pyridine-2-carboxamide], the IC50 in the experiment with A2780 cells (SRB assay) turned out to be 12 nM; at NAMPT, 8 nM.

For `CCc1ccc(S(=O)(=O)c2ccc(CNC(=O)c3cc4ccncc4o3)cc2)cc1` [N-({4-[(4-ethylbenzene)sulfonyl]phenyl}methyl)furo[2,3-c]pyridine-2-carboxamide], the IC50 was determined as 7 nM with A2780 cells (SRB) and 5 nM at NAMPT.

For `CCc1ccc(S(=O)(=O)c2ccc(CNC(=O)c3ccc4nccn4c3)cc2)cc1` [N-({4-[(4-ethylbenzene)sulfonyl]phenyl}methyl)imidazo[1,2-a]pyridine-6-carboxamide], the half-inhibitory concentration (IC50) in the experiment on A2780 cells (SRB) turned out to be 7.36 nM; at NAMPT, 16.5 nM.

With `CCc1ccc(S(=O)(=O)c2ccc(CNC(=O)c3cc4ccncc4s3)cc2)cc1` [N-({4-[(4-ethylbenzene)sulfonyl]phenyl}methyl)thieno[2,3-c]pyridine-2-carboxamide], the IC50 with A2780 cells (SRB assay) was 7.8 nM; at NAMPT, 6 nM.
